From patent publication US20080139612A1, “Chemical Compound” (ASTRAZENECA AB, priority 2006, published 2008)

Columns and labels:
CCR5 = biological target: T1, CCR5 (Homo sapiens, UniProt P51681); test: Displacement of radio-labelled CCR5 antagonist from Allo-T cell membranes (inhibition of MIP-1β binding); settings: membranes of human allo-reactive T cells; 2 nM [3H] CCR5 antagonist; 2 hours at room temperature; read-out: IC50, concentration which displaced 50% of bound radio-labelled CCR5 antagonist
T1 construct: After 21 to 34 days culture, the membranes were prepared from the cells; endogenous in cells; host or cells: Allo-T cells (allo-reactive T cell line from human PBMCs), membrane preparation
Experimental: The ability of the compound of the present invention to inhibit the binding of MIP-1β (CCL-4) was measured:
An allo-reactive T cell line was generated by exposure of human peripheral blood mononuclear cells (PBMCs) to L-DR4/B7 fibroblasts (immobilised with glutaraldehyde fixation and irradiation) and subsequent expansion with anti-CD3 and IL-2 for 14 days. The resultant Allo-T cells were frozen. When required, the cells were grown and re-challenged with irradiated HLA-DR4+ve PBMCs and expanded with anti-CD3 and IL-2. After 21 to 34 days culture, the membranes were prepared from the cells. These membranes were incubated in 96-well plates with 2 nM of the radio-labelled CCR5 antagonist [^3H]1-{(3R)-3-(3,5-difluorophenyl)-3-[4-(methylsulfonyl)phenyl]propyl}-4-(2-{[4-(methylsulfonyl)phenyl]sulfonyl}ethyl)piperidine and various concentrations of the compound of the invention for 2 hours at room temperature. The plates were then harvested onto GF/B filter plates (which had been pre-soaked soaked in 0.3% PEI containing 0.2% BSA for 10 min at 4° C.) using a Packard Unifilter harvester using 10 wash steps. The amount of [^3H]1-{(3R)-3-(3,5-difluorophenyl)-3-[4-(methylsulfonyl)phenyl]propyl}-4-(2-{[4-(methylsulfonyl)phenyl]sulfonyl}ethyl)piperidine retained on the filter plates was determined by scintillation counting. […]

[1] = test system: T-cells, chemotaxis in response to MIP-1β (CCL-4); test: Inhibition of chemotaxis of T-cells in response to MIP-1β (CCL-4); type: cell-based; settings: human allo-reactive T cell line; 1 nM MIP-1β; 1 hour at 37° C.; read-out: IC50, concentration which inhibited 50% of the chemotactic response
Experimental: The ability of the compound of the present invention to inhibit the chemotaxis of T-cells in response to MIP-1β (CCL-4) was measured:
An allo-reactive T cell line was generated by exposure of human peripheral blood mononuclear cells (PBMCs) to L-DR4/B7 fibroblasts (immobilised with glutaraldehyde fixation and irradiation) and subsequent expansion with IL-2 and anti-CD3. When required, the cells were grown and re-challenged with irradiated HLA-DR4+ve PBMCs and expanded with anti-CD3 and IL-2. The cells were used between day 21 and 34. 1 nM of MIP-1β plus varying concentrations of the CCR5 antagonist [^3H]1-{(3R)-3-(3,5-difluorophenyl)-3-[4-(methylsulfonyl)phenyl]propyl}-4-(2-{[4-(methylsulfonyl)phenyl]sulfonyl}ethyl)piperidine were placed in assay buffer in the bottom of a 96-well Neuroprobe Chemo TX chemotaxis plate and cells that had been loaded with a fluorescent dye and pre-incubated with varying concentration of the CCR5 antagonist were pipetted onto the surface of a 5 micron pore size membrane according to the manufacturers specifications. After 1 hour of incubation with the compound of the invention at 37° C., the unmigrated cells were washed off the surface of the plate with PBS and the […] by reading on a 96-well fluorescent plate reader. […]

T1 sequence (P51681 whole entry): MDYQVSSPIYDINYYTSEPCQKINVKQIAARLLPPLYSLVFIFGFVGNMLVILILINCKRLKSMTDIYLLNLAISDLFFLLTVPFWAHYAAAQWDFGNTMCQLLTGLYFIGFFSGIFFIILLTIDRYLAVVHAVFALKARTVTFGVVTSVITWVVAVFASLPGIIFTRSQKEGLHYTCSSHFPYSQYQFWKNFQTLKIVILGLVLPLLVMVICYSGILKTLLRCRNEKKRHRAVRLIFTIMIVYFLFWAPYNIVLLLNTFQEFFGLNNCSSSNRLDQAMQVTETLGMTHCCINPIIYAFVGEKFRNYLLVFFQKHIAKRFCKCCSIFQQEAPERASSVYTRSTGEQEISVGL

| IC50 (CCR5) [µM] | IC50 [1] [µM] | Compound |
| --- | --- | --- |
| 0.039 | 0.068 | Cc1nnc(C(F)(F)F)n1C1CCN(CC[C@@H](c2cc(F)cc(F)c2)C2CCN(S(C)(=O)=O)CC2)CC1 [Comparator Compound A, 1-{(3R)-3-(3,5-difluorophenyl)-3-[1-(methylsulfonyl)piperidin-4-yl]propyl}-4-[3-methyl-5-(trifluoromethyl)-4H-1,2,4-triazol-4-yl]piperidine] |
| 0.0034 | 0.0021 | Cc1nnc(C(C)(F)F)n1C1CCN([C@H](C)C[C@@H](c2cc(F)cc(F)c2)C2CCN(S(C)(=O)=O)CC2)CC1 (single isomer, unassigned) |
